Entries after “also recorded” stand apart in the source; their conditions may differ. Read-outs that look alike come from different tables or passages of the source.

Common to all, as to assay type: cell-based
One assay deals with tumor spheroids. The assay can be described thus: Motility contrast imaging (motility metric, dynamic speckle) of tumor spheroids. The settings on record: for dose-response plotted as a reaction velocity (suppression of cellular motion): FIG. 13D, comparison of Nocodazole, Colchicine, Taxol. On the procedure:
To create tumor spheroids for our studies, two different cell lines were used: rat osteogenic sarcoma UMR-106 cells, and human liver carcinoma Hep G2 cells. These were cultured in a rotating bioreactor (Synthecon, Houston, Tex.) where they were maintained in suspension. The spheroids may be grown up to a mm in diameter. An advantage to using this continuous culture model is that fresh spheroids of varying size are easily prepared on a daily basis.
Motility contrast imaging relies on dynamic light scattering combined with coherence gating. […] The data are the reconstructed pixel intensities plotted on a dB reflectance scale. The tumor in FIG. 9A was “healthy” while the tumor in FIG. 9B had been crosslinked with glutaraldehyde. […] The vertical axis is frame number at a rate of one frame per second.
Among the several possible ways to define a motility metric, one particularly robust approach simply calculates the coefficient of variance (known as the CV or as the normalized standard deviation) of a pixel value (after background subtraction) as a property related to the cellular and subcellular motion. The motility metric for individual pixels is plotted in FIG. 11 at nine selected depths inside a healthy tumor. The depths starting in the upper-left are 60 μm, 120 μm, 180 μm, 260 μm, 330 μm, 390 μm, 460 μm, 530 μm and 600 μm, respectively. The first frame is near the top of the tumor, while the central frame is near the center plane of the tumor. In the central plane there is a strong contrast between the healthy shell and necrotic core. […] These images correlate with the known structure of the tumor spheroids with a healthy outer shell and a necrotic core. In these images, the internal motions of the cells themselves have provided the imaging contrast agent. This is a truly endogenous functional imaging approach (i.e. without additional labeling or contrast agents).
Armed with the motility metric and the maps of cellular motion, it is possible to image the effects of anti-mitotic drugs (AMD) on the motility images. A time series at a fixed depth is shown in FIG. 12 for Nocodazole, which is an antimitotic drug (AMD) that inhibits the polymerization of tubulin into microtubules. The first frame is the initial state of the tumor. […] Nocodazole inhibits the polymerization of the microtubules, while treadmilling dissolves the microtubules from the other end, resulting in a significant reduction in the microtubule density within the cells. Without the microtubule cytoskeleton, organelle transport is suppressed, which is captured by the dynamic light scattering.

For assay [1], the system named is Rat osteogenic sarcoma tumor spheroids. As to the kind of experiment: Speckle fluctuation spectroscopy: differential spectrograms (normalized spectral difference) of living tumor spheroids by coherence-gated digital holography. From the text: The set-up includes several mirrors M; a neutral density filter ND, two polarizing beam splitters PBS, a beam splitter BS, three lenses L1-L3, a half-wave plate λ/2, a quarter-wave plate λ/4, a Fourier plane FP, and a sample or target T. A mode-locked Ti:sapphire laser (100 fs pulse duration, 100 MHz repetition rate) was used with a center wavelength of 840 nm and a bandwidth of 17 nm. The lenses L1 and L2 expanded a reference beam, and the lens L3 performed the Fourier transform of the object beam. The CCD camera was placed at the Fourier plane of the object, where the object beam interfered with the zero-path-matched reference beam that passed through the computer-controlled delay line. The typical object intensity for living tissue at the object plane was 5 mW/mm^2, and an 8-bit CCD camera with one mega-pixel resolution was used with an exposure time of 10 msec. Digital holograms were reconstructed by Fast Fourier transform (FFT).
Rat osteogenic sarcoma tumor spheroids were used as the target tissue samples. Multicellular tumor spheroids have approximately spherical geometry that facilitates comparison of structure to function. As tumor spheroids are cultured in a rotating bioreactor, they undergo cell apoptosis or necrosis in their center and so consist of an inner necrotic core surrounded by an outer proliferating shell with a 100 to 200 μm thickness. A typical pseudo B-scan image is shown in FIG. 20, which is produced from 3D holographic images of an 800-μm-diameter rat tumor spheroid.
To capture dynamic speckle, 200 successive digital holograms were acquired at a fixed depth shown as a dashed line in FIG. 20. The time interval between holograms was selected to be 0.1 second. Examples of dynamic speckle are shown in FIG. 21A for a healthy rat tumor spheroid with a 600 μm diameter. […] The horizontal axis is the spatial axis and time is vertical. […] A “healthy” tumor is one that has been removed from the bioreactor and maintained in growth medium at room temperature for no more than 24 hours.
For tissue responding to stimuli, such as temperature and osmolarity changes or response to drugs, the key property of the spectral power density is its relative change in response to the stimulus. The normalized spectral difference for a time series is given by
[formula] where S0 (ω,t 0) is the starting spectral power density at the beginning time t0 of the experiment, and S(ω, t) is the time development of the spectral power density. The normalized power spectrum as a function of frequency of a 450-μm-diameter tumor responding to a dose of 1 μg/ml of nocodazole, an anti-tubulin cytoskeletal drug, is shown in FIG. 21C at selected times after the application of the drug. The associated normalized differential relative spectral change is shown in FIG. 21D as a function of time for the selected frequencies.
The tissue response contained in D(ω, t) can be represented as a spectrogram, showing the relative change in the spectrum as a function of time. These spectrograms track the changes of the intra-cellular motion in living tumors responding to temperature changes, osmolarity changes, and to nocodazole. The spectral difference in response to changes in temperature is shown in FIG. 22A as the temperature increased from 24° C. to 37° C. and then decreased to 24° C. The lower frequencies show weak suppression with increasing temperature, while the upper frequencies show significant enhancement at the highest temperature.
The drug-response spectrograms are defined by the differential relative spectral density as D(ω, t)=[S(ω, t)−S(ω, t0)]/S (ω, t0) where the spectrum at time t is related to and normalized by the spectrum at time to before the application of the perturbation or dose. The normalization is essential, because the spectral power density has general 1/f behavior, and the high frequency amplitudes are much smaller than the low frequency amplitudes. […]

The test system of assay [2] is tumor spheroid (healthy shell and necrotic core). As to the kind of experiment: Heterodyne autocorrelation function of depth-gated speckle (correlation time, NSD) of a tumor spheroid. The note with it: 10 minutes after 10 μg/ml cytochalasin D. From the text:
In living tissue, the speckle is dynamic, caused by motion of cellular membranes and by intracellular organelles, coupled with the optical channel cross-talk caused by multiple scattering. […] We previously studied the effects of anti-mitotic drugs on tumor spheroids using optical coherence imaging, and defined motility metrics from the autocorrelation functions of the depth-gated pixel fluctuations. The resulting motility contrast imaging (MCI) is fully endogenous, responding to the dynamic functions of cellular processes. The autocorrelation function is a first-order heterodyne function because the holography uses a reference wave (the coherence gate) that captures the real and imaginary part of the fluctuating field as the coherence-gated pixel number Id^(1) (t) to yield the autocorrelation function A^(1)(τ)= ? id^(1)(0)id^(1)(τ) ? ∝ILO^2+2ILORE {I^(1)(τ)} where τ is the time delay among an ensemble of images, and I^(1), (τ) is the heterodyne correlation function. Two motility metrics can be defined from the heterodyne correlation function. They are the decay time, and the normalized standard deviation, given by
An ensemble consists of 40 images taken with a frame rate of 1 per second. […] […].

Regarding `O=CCCCC=O` [glutaraldehyde], in the assay with tumor spheroids (tumor crosslinked with glutaraldehyde, depth about 300 microns, one frame per second), the “dynamic speckle at fixed depth” value is on record as “static speckle”.

Regarding `O=C(O)CI` [iodoacetate], in assay [1], the “oscillations in the spectrogram, shell and core” value is on record as “induces oscillations in the mid-to-low frequency range”; the “spectrogram of the shell, high frequencies associated with organelle transport” value is “strong increase”.

For `COC(=O)Nc1nc2ccc(C(=O)c3cccs3)cc2[nH]1` [Nocodazole], the “motility (activity) of the outer shell, motility maps” value with tumor spheroids (2 μg/ml Nocodazole, 3 minutes after application, fixed depth) was “increased its activity by a small amount”. Further, the “motility (motion) of the outer shell, motility maps” value was “partially suppressed” in the assay with tumor spheroids (2 μg/ml Nocodazole, 21 minutes); “further suppressed” in the assay on tumor spheroids (2 μg/ml Nocodazole, 50 minutes); “further suppressed” in the assay with tumor spheroids (2 μg/ml Nocodazole, 79 minutes). Besides, in the assay on tumor spheroids (2 μg/ml Nocodazole, 119 minutes after application), the “motility in the outer shell, motility maps” value is “significantly reduced”. Also, the “dose-response plotted as a reaction velocity (suppression of cellular motion)” value in the assay with tumor spheroids is “strongest suppression of cellular motion at the lowest effective concentrations”. In addition, the “normalized spectral difference, middle frequency range between 0.02 Hz to 1 Hz” value in assay [1] (1 μg/ml nocodazole) is listed as “very strong suppression in motion”. Besides, the “normalized spectral difference, ultra-low frequency below 0.01 Hz” value in assay [1] (1 μg/ml nocodazole) is “enhancement”. In addition, the “normalized differential relative spectral change as a function of time at selected frequencies” value in assay [1] (1 μg/ml nocodazole, 450-μm-diameter tumor, proliferating shell) is “higher frequencies change relatively less than the lower frequencies”. Further, the spectrogram fingerprint entry in assay [1] (dose of 1 μg/ml, FIG. 34A-34D) was “significant enhancement of lower frequencies”.

Turning to `COc1cc2c(c(OC)c1OC)-c1ccc(OC)c(=O)cc1[C@@H](NC(C)=O)CC2` [Colchicine], in assay [1], the “high-frequency organelle activity, core-shell comparison” value (“high-frequency organelle activity” for short) is “appears only in the healthy shell and not in the core”; the spectrogram fingerprint result is listed as “significant enhancement of lower frequencies”.

Turning to `C=C1[C@@H](C)[C@H]2[C@H](Cc3ccccc3)NC(=O)[C@]23[C@H](OC(C)=O)/C=C/[C@@](C)(O)C(=O)[C@@H](C)C/C=C/[C@H]3[C@@H]1O` [cytochalasin D], in assay [2], the “brightness change of the healthy shell” value is recorded as 6% and the “brightness change of the necrotic core” value is on record as “becomes dimmer”. Further, the “correlation time, healthy shell” value in assay [2] (before dose 4.6 sec) was 7.2 s. The “relative power spectral density, middle-frequency fluctuations, shell” value in assay [1] (50 μg/ml cytochalasin D at room temperature, 10 μg/ml at physiological temperature) is on record as “enhanced”. The spectrogram fingerprint entry in assay [1] (dose of 1 μg/ml, FIG. 34A-34D) is “enhancement of the mid-frequencies for about 2 hours after application of the drug, followed by a shift of the spectral weight to lower frequencies”. In addition, the “high-frequency organelle activity” value in assay [1] (shell versus core spectrograms) is “appears only in the healthy shell and not in the core; also recorded: appears strongly only in the shell and not in the core”.

Regarding `CC(=O)O[C@H]1C(=O)[C@@]2(C)[C@H]([C@H](OC(=O)c3ccccc3)[C@]3(O)C[C@H](OC(=O)[C@H](O)[C@@H](NC(=O)c4ccccc4)c4ccccc4)C(C)=C1C3(C)C)[C@]1(OC(C)=O)CO[C@@H]1C[C@@H]2O` [Taxol, Paclitaxel], the “suppression of the motility, time evolution under different doses” value in the assay with tumor spheroids (FIG. 13A-13C) is reported as “significantly smaller suppression of the motility”. Moreover, the “dose-response plotted as a reaction velocity (suppression of cellular motion)” value in the assay with tumor spheroids is given as “weakest effect”. Further, the spectrogram fingerprint entry in assay [1] (dose of 1 μg/ml, FIG. 34A-34D) is recorded as “only a weak change”. Further, the “high-frequency organelle activity” value in assay [1] (shell versus core spectrograms) is “appears only in the healthy shell and not in the core”.

Source of the values: patent publication US10401793B2, “Digital holographic method of measuring cellular activity and measuring apparatus with improved stability” (PURDUE RESEARCH FOUNDATION, priority 2010, dated 2019).
